Reference: patent publication US20120214862A1, “MODULATION OF FACTOR 7 EXPRESSION” (ISIS Pharmaceuticals, Inc., priority 2009, published 2012)
In the oligonucleotide strings, read from the 5' end, every base follows the letter of its sugar. An asterisk marks phosphorothioate; unmarked linkages are phosphodiester. Other units and linkages are bracketed, terminal groups are in braces. A string of capitals states the bases alone. e = 2'-O-(2-methoxyethyl) (MOE); [5mC] = 5-methylcytosine; d = 2'-deoxy (DNA)

System: human Factor 7 mRNA
Assay: Inhibition of human Factor 7 mRNA by 2-10-2 MOE shortmers in HepB3 cells, electroporation, 1,000 nM
Assay type: cell-based
Settings: electroporation, 1,000 nM oligonucleotide, approximately 24 hours, relative to untreated control cells
Excerpt: Short antisense oligonucleotides (shortmers) were designed to target a Factor 7 nucleic acid. The shortmers in Table 17 were designed as 2-10-2 MOE gapmers. The gapmers are 14 nucleotides in length, wherein the central gap segment is comprised of 10 2′-deoxynucleotides and is flanked on both sides (in the 5′ and 3′ directions) by wings comprising 2 nucleotides each. Each nucleotide in the 5′ wing segment and each nucleotide in the 3′ wing segment has a 2′-MOE modification. The internucleoside linkages throughout each gapmer are phosphorothioate (P═S) linkages. All cytidine residues throughout each gapmer are 5-methylcytidines.
Shortmers were evaluated for their ability to reduce human Factor 7 mRNA in HepB3 cells and compared with one 5-10-5 chimeric oligonucleotide from Table 16, ISIS 407939. HepB3 cells at a density of 20,000 cells per well in a 96-well plate were transfected using electroporation with 1,000 nM of antisense oligonucleotide. After a treatment period of approximately 24 hours, RNA was isolated from the cells and Factor 7 mRNA levels were measured by real-time RT-PCR, as described herein. Factor 7 mRNA levels were adjusted according to total RNA content as measured by RIBOGREEN®. Results are presented in Table 17 as percent inhibition of Factor 7 mRNA, relative to untreated control cells. ISIS 407939 is the first oligonucleotide in […] to which the shortmers were compared, and is marked by an asterisk (*).

Row | Substance | % inhibition of human Factor 7 mRNA
1 | 435686 (antisense e[5mC]*eA*dG*dT*dG*dA*dG*dG*dA*d[5mC]*d[5mC]*dA*e[5mC]*eG) [compound 435686] | 31%
2 | 435687 (antisense eA*eT*dG*dG*dT*d[5mC]*dA*dG*dT*dG*dA*dG*eG*eA) [compound 435687] | 7%
3 | 435688 (antisense eA*e[5mC]*d[5mC]*dA*d[5mC]*dA*dT*dG*dG*dT*d[5mC]*dA*eG*eT) [compound 435688] | 0%
4 | 435689 (antisense eT*eT*d[5mC]*dG*dG*dG*d[5mC]*dA*dG*dG*d[5mC]*dA*eG*eA) [compound 435689] | 23%
5 | 435690 (antisense eG*eT*d[5mC]*d[5mC]*dG*dT*dT*d[5mC]*dG*dG*dG*d[5mC]*eA*eG) [compound 435690] | 55%
6 | 435691 (antisense e[5mC]*eA*dG*d[5mC]*d[5mC]*dG*d[5mC]*dT*dG*dA*d[5mC]*d[5mC]*eA*eA) [compound 435691] | 25%
7 | 435692 (antisense e[5mC]*eG*dG*dT*d[5mC]*d[5mC]*dA*dG*d[5mC]*dA*dG*d[5mC]*eT*eG) [compound 435692] | 32%
8 | 435693 (antisense eG*eG*d[5mC]*dA*dG*dT*d[5mC]*d[5mC]*dT*dG*dG*dG*eT*e[5mC]) [compound 435693] | 43%
9 | 435694 (antisense e[5mC]*eT*dG*d[5mC]*dA*dG*dG*d[5mC]*dA*dG*dT*d[5mC]*e[5mC]*eT) [compound 435694] | 39%
10 | 435695 (antisense eG*eA*d[5mC]*dT*dG*d[5mC]*dT*dG*d[5mC]*dA*dG*dG*e[5mC]*eA) [compound 435695] | 48%
11 | 435696 (antisense e[5mC]*eA*dG*dA*dA*d[5mC]*dA*dT*dG*dT*dA*d[5mC]*eT*e[5mC]) [compound 435696] | 10%
12 | 435697 (antisense eA*eG*dT*dA*dG*d[5mC]*d[5mC]*dG*dG*d[5mC]*dA*d[5mC]*eA*eG) [compound 435697] | 53%
13 | 435698 (antisense e[5mC]*e[5mC]*dT*dT*dG*d[5mC]*dA*dG*dG*dA*dG*dT*e[5mC]*e[5mC]) [compound 435698] | 61%
14 | 435699 (antisense eG*e[5mC]*d[5mC]*d[5mC]*d[5mC]*dA*dG*d[5mC]*dT*dG*dA*d[5mC]*eG*eA) [compound 435699] | 48%
15 | 435714 (antisense eA*e[5mC]*dT*d[5mC]*dG*dA*dT*dG*dT*dA*d[5mC]*dT*eG*eG) [compound 435714] | 3%
16 | 435715 (antisense e[5mC]*eA*dG*d[5mC]*d[5mC]*dA*d[5mC]*dT*d[5mC]*dG*dA*dT*eG*eT) [compound 435715] | 35%
17 | 435716 (antisense eT*eT*dT*dT*dG*d[5mC]*dA*dG*d[5mC]*d[5mC]*dA*d[5mC]*eT*e[5mC]) [compound 435716] | 22%
18 | 435717 (antisense eT*eG*dA*dG*d[5mC]*dT*dT*dT*dT*dG*d[5mC]*dA*eG*e[5mC]) [compound 435717] | 0%
19 | 435718 (antisense eG*e[5mC]*dT*d[5mC]*dG*d[5mC]*dA*dG*dG*dA*dG*dG*eA*e[5mC]) [compound 435718] | 26%
20 | 435719 (antisense e[5mC]*eA*dG*d[5mC]*d[5mC]*dT*dT*dG*dG*d[5mC]*dT*dT*eT*e[5mC]) [compound 435719] | 50%
21 | 435720 (antisense eA*eG*dG*d[5mC]*dT*d[5mC]*dA*dG*d[5mC]*dT*dG*dG*eG*e[5mC]) [compound 435720] | 16%
22 | 435721 (antisense eT*eA*dA*dG*dG*dA*dG*dG*d[5mC]*dT*d[5mC]*dA*eG*e[5mC]) [compound 435721] | 12%
23 | 435722 (antisense eT*eG*dG*dG*d[5mC]*dT*dT*dG*dG*d[5mC]*dT*dG*eA*eA) [compound 435722] | 50%
24 | 435723 (antisense eG*e[5mC]*d[5mC]*dA*dG*d[5mC]*dA*dG*dA*dT*d[5mC]*dA*e[5mC]*eG) [compound 435723] | 68%
25 | 435724 (antisense e[5mC]*eT*dG*dA*dG*dG*d[5mC]*d[5mC]*dA*dG*d[5mC]*dA*eG*eA) [compound 435724] | 52%
26 | 435725 (antisense eG*e[5mC]*dA*dG*d[5mC]*d[5mC]*dT*dG*dA*dG*dG*d[5mC]*e[5mC]*eA) [compound 435725] | 79%

Row | Substance | % inhibition of human Factor 7 mRNA
27 | 435726 (antisense eG*e[5mC]*dA*dA*dT*dG*dA*dA*dG*dG*d[5mC]*dA*eG*eA) [compound 435726] | 26%
28 | 435727 (antisense eT*eG*dG*dA*dG*dT*d[5mC]*dA*dG*d[5mC]*dA*dT*e[5mC]*eG) [compound 435727] | 73%
29 | 435728 (antisense eA*e[5mC]*dA*d[5mC]*dA*dT*dG*dG*dA*dG*dT*d[5mC]*eA*eG) [compound 435728] | 16%
30 | 435729 (antisense eA*e[5mC]*dA*dG*d[5mC]*dA*d[5mC]*dA*d[5mC]*dA*dT*dG*eG*eA) [compound 435729] | 30%
31 | 435730 (antisense eT*eA*dA*dA*d[5mC]*dA*dA*d[5mC]*d[5mC]*dG*d[5mC]*d[5mC]*eT*eT) [compound 435730] | 49%
32 | 435731 (antisense eG*eT*dG*dA*dG*dA*dG*d[5mC]*dT*dA*dA*dA*e[5mC]*eA) [compound 435731] | 11%
33 | 435732 (antisense eG*eA*dA*dA*dA*dG*dT*dG*dA*dG*dA*dG*e[5mC]*eT) [compound 435732] | 0%
34 | 435733 (antisense e[5mC]*eT*dG*dA*dA*dT*dT*dG*dT*d[5mC]*dT*dG*eA*eA) [compound 435733] | 5%
35 | 435734 (antisense eA*eT*dG*d[5mC]*dT*dT*d[5mC]*dT*dG*dA*dA*dT*eT*eG) [compound 435734] | 16%
36 | 435735 (antisense eT*eG*dG*dT*dG*dA*dT*dG*d[5mC]*dT*dT*d[5mC]*eT*eG) [compound 435735] | 81%
37 | 435736 (antisense eA*eT*dG*d[5mC]*dA*dT*dG*dG*dT*dG*dA*dT*eG*e[5mC]) [compound 435736] | 50%
38 | 435737 (antisense eG*eT*dG*d[5mC]*dA*dG*d[5mC]*d[5mC]*d[5mC]*dG*dG*d[5mC]*eA*e[5mC]) [compound 435737] | 70%
39 | 435738 (antisense e[5mC]*eA*dG*dA*dG*dG*dA*dT*dG*dA*dG*d[5mC]*eA*e[5mC]) [compound 435738] | 16%
40 | 435739 (antisense e[5mC]*eA*dT*d[5mC]*dT*d[5mC]*dA*dG*dA*dG*dG*dA*eT*eG) [compound 435739] | 5%
41 | 435740 (antisense eT*e[5mC]*dA*dT*dT*dT*d[5mC]*dA*dG*dT*dG*dA*eT*eG) [compound 435740] | 0%
42 | 435741 (antisense eA*eG*dG*dG*dT*dT*d[5mC]*dA*dT*dT*dT*d[5mC]*eA*eG) [compound 435741] | 6%
43 | 435742 (antisense eA*eT*dG*dT*dG*dA*dG*dG*dG*dT*dT*d[5mC]*eA*eT) [compound 435742] | 11%
44 | 435743 (antisense eG*e[5mC]*d[5mC]*dT*d[5mC]*dA*dA*dA*d[5mC]*dA*dT*d[5mC]*eT*eA) [compound 435743] | 40%
45 | 435744 (antisense e[5mC]*eT*dA*d[5mC]*dA*dG*d[5mC]*d[5mC]*dT*d[5mC]*dA*dA*eA*e[5mC]) [compound 435744] | 19%
46 | 435745 (antisense eG*eG*dG*dA*dG*d[5mC]*dT*dA*d[5mC]*dA*dG*d[5mC]*e[5mC]*eT) [compound 435745] | 0%
47 | 435746 (antisense eA*eT*dT*dG*dA*d[5mC]*dA*dA*dG*dG*dG*d[5mC]*eT*eG) [compound 435746] | 32%
48 | 435747 (antisense eA*eT*dA*dT*d[5mC]*dA*dT*dT*dG*dA*d[5mC]*dA*eA*eG) [compound 435747] | 0%
49 | 435748 (antisense eT*e[5mC]*d[5mC]*d[5mC]*dA*dG*dG*dG*dT*d[5mC]*dT*d[5mC]*eT*eG) [compound 435748] | 18%
50 | 435749 (antisense e[5mC]*eA*dG*d[5mC]*d[5mC]*dA*dG*dG*dG*d[5mC]*d[5mC]*dT*eG*eG) [compound 435749] | 29%
51 | 435750 (antisense e[5mC]*eA*d[5mC]*dT*dG*d[5mC]*dA*dG*d[5mC]*d[5mC]*dA*dG*eG*eG) [compound 435750] | 14%
52 | 435751 (antisense e[5mC]*eT*dT*dG*d[5mC]*d[5mC]*dA*dG*dG*dT*d[5mC]*d[5mC]*eT*e[5mC]) [compound 435751] | 28%
